Experimental data as given in ChEMBL document CHEMBL1201862, “PubChem BioAssay data set” (2004).
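Grown in 96-well plates, cells were treated for 48 hours with each compound at five concentrations. Insufficient inhibition: endpoint recorded as highest concentration tested. GI50 is the concentration that inhibits growth by half.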 Activity calls are given as the source filed them. No stated cut-off is given here; in the data, active = GI50 up to about 1.1 µM and inactive = higher.

Columns and labels:
Experiment in all cases: NCI tumour cell line growth inhibition, 48 h
NCI-H460 = system: NCI-H460
Malme-3M = system: Malme-3M
HCC 2998 = system: HCC 2998
LOX IMVI = system: LOX IMVI
SN12C = system: SN12C
ACHN = system: ACHN
MDA-MB-435 = system: MDA-MB-435
CCRF-CEM = system: CCRF-CEM
A549 = system: A549
U-251 = system: U-251
SK-MEL-5 = system: SK-MEL-5
TK-10 = system: TK-10
SK-OV-3 = system: SK-OV-3
CAKI-1 = system: CAKI-1
NCI-H522 = system: NCI-H522
DU-145 = system: DU-145
SR = system: SR
SNB-75 = system: SNB-75
BT-549 = system: BT-549

SMILES	GI50 (NCI-H460)	GI50 (Malme-3M)	GI50 (HCC 2998)	GI50 (LOX IMVI)	GI50 (SN12C)	GI50 (ACHN)	GI50 (MDA-MB-435)	GI50 (CCRF-CEM)	GI50 (A549)	GI50 (U-251)	GI50 (SK-MEL-5)	GI50 (TK-10)	GI50 (SK-OV-3)	GI50 (CAKI-1)	GI50 (NCI-H522)	GI50 (DU-145)	GI50 (SR)	GI50 (SNB-75)	GI50 (BT-549)
COc1ccc(/C=C/c2ccnc3ccccc23)cc1	23.6 µM (inactive)	16.7 µM (inactive)	20.1 µM (inactive)	16.5 µM (inactive)	18.6 µM (inactive)	13.9 µM (inactive)	17.1 µM (inactive)	10.5 µM (inactive)	15.4 µM (inactive)	17.1 µM (inactive)	14.3 µM (inactive)	16.2 µM (inactive)	19.1 µM (inactive)	17.7 µM (inactive)	17.5 µM (inactive)	14.8 µM (inactive)	29.3 µM (inactive)	–	–
Oc1ccc(O)c(Cc2ccccc2)c1	20.7 µM (inactive)	26.4 µM (inactive)	93.1 µM (inactive)	18.6 µM (inactive)	18.4 µM (inactive)	14.8 µM (inactive)	19.5 µM (inactive)	7.41 µM (inactive)	37.2 µM (inactive)	20.1 µM (inactive)	17.3 µM (inactive)	21.7 µM (inactive)	32.8 µM (inactive)	–	–	6.27 µM (inactive)	2.32 µM (inactive)	–	–
COC(=O)[C@@H]1CN(C(=O)Cc2ccccc2)C(=O)N1	> 100 µM (inactive)	> 100 µM (inactive)	–	> 100 µM (inactive)	> 100 µM (inactive)	> 100 µM (inactive)	> 100 µM (inactive)	> 100 µM (inactive)	> 100 µM (inactive)	> 100 µM (inactive)	> 100 µM (inactive)	> 100 µM (inactive)	–	> 100 µM (inactive)	> 100 µM (inactive)	> 100 µM (inactive)	> 100 µM (inactive)	93.8 µM (inactive)	–
O=C(CSc1nc2ccccc2c(=O)n1-c1ccccc1)N/N=C1\C(=O)Nc2ccc(F)cc21	2.19 µM (inactive)	2.01 µM (inactive)	2.21 µM (inactive)	4.31 µM (inactive)	1.97 µM (inactive)	1.91 µM (inactive)	3.64 µM (inactive)	2.35 µM (inactive)	4 µM (inactive)	8.93 µM (inactive)	3.3 µM (inactive)	1.9 µM (inactive)	1.81 µM (inactive)	1.73 µM (inactive)	–	1.89 µM (inactive)	1.53 µM (inactive)	–	–
CO/C(=N\N=C\c1ccc(Cl)c(Cl)c1)c1ccncc1	> 10 µM (inactive)	> 10 µM (inactive)	> 10 µM (inactive)	> 10 µM (inactive)	> 10 µM (inactive)	4.99 µM (inactive)	–	> 10 µM (inactive)	> 10 µM (inactive)	> 10 µM (inactive)	> 10 µM (inactive)	> 10 µM (inactive)	> 10 µM (inactive)	> 10 µM (inactive)	–	–	2.75 µM (inactive)	9.86 µM (inactive)	–
Cc1cc(NS(=O)(=O)c2ccc(NC(=O)c3cccc4c(Nc5ccc(S(=O)(=O)N=C(N)N)cc5)c5ccccc5nc34)cc2)no1	> 100 µM (inactive)	> 100 µM (inactive)	> 100 µM (inactive)	> 100 µM (inactive)	> 100 µM (inactive)	> 100 µM (inactive)	–	–	> 100 µM (inactive)	> 100 µM (inactive)	> 100 µM (inactive)	> 100 µM (inactive)	> 100 µM (inactive)	> 100 µM (inactive)	> 100 µM (inactive)	–	> 100 µM (inactive)	> 100 µM (inactive)	–
O=C(Cc1ccccc1)NN1C(=O)/C(=C\c2cccc(O)c2)S/C1=N\c1ccccc1	> 100 µM (inactive)	–	> 100 µM (inactive)	–	> 100 µM (inactive)	> 100 µM (inactive)	> 100 µM (inactive)	–	> 100 µM (inactive)	> 100 µM (inactive)	> 100 µM (inactive)	> 100 µM (inactive)	> 100 µM (inactive)	–	–	> 100 µM (inactive)	–	> 100 µM (inactive)	–
NC12CC3CC4C1CC1CC2C(C3)C4(N)C1	> 100 µM (inactive)	> 100 µM (inactive)	–	> 100 µM (inactive)	> 100 µM (inactive)	> 100 µM (inactive)	> 100 µM (inactive)	> 100 µM (inactive)	> 100 µM (inactive)	> 100 µM (inactive)	> 100 µM (inactive)	50.7 µM (inactive)	> 100 µM (inactive)	> 100 µM (inactive)	> 100 µM (inactive)	> 100 µM (inactive)	–	–	> 100 µM (inactive)
CC(C)(C)CC(C)(C)N/C(N)=N/O	> 83.2 µM (inactive)	> 100 µM (inactive)	> 100 µM (inactive)	> 100 µM (inactive)	> 100 µM (inactive)	6.71 µM (inactive)	> 100 µM (inactive)	> 100 µM (inactive)	> 100 µM (inactive)	> 100 µM (inactive)	51.8 µM (inactive)	> 48.5 µM (inactive)	24.1 µM (inactive)	> 100 µM (inactive)	> 100 µM (inactive)	> 100 µM (inactive)	> 81.5 µM (inactive)	> 86.5 µM (inactive)	–
[O-][S+]1c2ccccc2SCSc2ccccc21	> 100 µM (inactive)	> 100 µM (inactive)	> 100 µM (inactive)	–	> 100 µM (inactive)	> 100 µM (inactive)	–	–	> 100 µM (inactive)	> 100 µM (inactive)	76.6 µM (inactive)	> 100 µM (inactive)	> 100 µM (inactive)	> 100 µM (inactive)	> 100 µM (inactive)	> 100 µM (inactive)	46.2 µM (inactive)	–	–
O=[N+]([O-])c1ccc2c(c1)c(S(=O)(=O)O)cc1nonc12	> 100 µM (inactive)	> 100 µM (inactive)	–	> 100 µM (inactive)	> 100 µM (inactive)	> 100 µM (inactive)	> 100 µM (inactive)	–	> 100 µM (inactive)	> 100 µM (inactive)	> 100 µM (inactive)	> 100 µM (inactive)	> 100 µM (inactive)	> 100 µM (inactive)	> 100 µM (inactive)	–	> 100 µM (inactive)	–	> 100 µM (inactive)
COc1ccc(CNc2nc(NCc3ccc(OC)cc3)nc(NC3CCCC3)n2)cc1	3.6 µM (inactive)	8.53 µM (inactive)	–	5.78 µM (inactive)	> 19.8 µM (inactive)	4.47 µM (inactive)	1.48 µM (inactive)	2.24 µM (inactive)	5.26 µM (inactive)	4.5 µM (inactive)	3.76 µM (inactive)	3.26 µM (inactive)	5.28 µM (inactive)	4.02 µM (inactive)	2.99 µM (inactive)	3.44 µM (inactive)	2.67 µM (inactive)	16.4 µM (inactive)	–
CC(C(O)c1ccccc1)[N+](=O)[O-] (stereo not given)	35.2 µM (inactive)	21.7 µM (inactive)	10.9 µM (inactive)	2.29 µM (inactive)	18.1 µM (inactive)	16.3 µM (inactive)	18.5 µM (inactive)	10 µM (inactive)	17.7 µM (inactive)	16.6 µM (inactive)	17.9 µM (inactive)	28.6 µM (inactive)	–	14.2 µM (inactive)	8.71 µM (inactive)	12.7 µM (inactive)	2.68 µM (inactive)	40.6 µM (inactive)	–
CN(CC(=O)O)c1ncc2c(n1)-c1ccccc1OC2	> 100 µM (inactive)	> 100 µM (inactive)	–	> 100 µM (inactive)	> 100 µM (inactive)	> 100 µM (inactive)	> 100 µM (inactive)	> 100 µM (inactive)	> 100 µM (inactive)	> 100 µM (inactive)	> 100 µM (inactive)	> 100 µM (inactive)	–	> 100 µM (inactive)	> 100 µM (inactive)	> 100 µM (inactive)	> 100 µM (inactive)	> 100 µM (inactive)	–
[O-][N+]1=[N+]([O-])[C@@H](c2ccccc2)[C@H]1c1ccccc1	22.4 µM (inactive)	17.7 µM (inactive)	–	15.3 µM (inactive)	18 µM (inactive)	17.6 µM (inactive)	18.7 µM (inactive)	3.3 µM (inactive)	19.5 µM (inactive)	18.6 µM (inactive)	16.7 µM (inactive)	17 µM (inactive)	32.3 µM (inactive)	5.83 µM (inactive)	11.5 µM (inactive)	16.3 µM (inactive)	18.4 µM (inactive)	21.3 µM (inactive)	–
C=CCOC(=O)N1c2ccc(O)cc2[C@@]23O[C@@]24[C@@H]1C#C/C=C\C#C[C@]3(O)C(=O)C[C@@H]4C	11.5 µM (inactive)	98.2 µM (inactive)	> 100 µM (inactive)	–	54.2 µM (inactive)	28.2 µM (inactive)	27.4 µM (inactive)	28.4 µM (inactive)	32 µM (inactive)	95.9 µM (inactive)	21.5 µM (inactive)	> 100 µM (inactive)	–	> 100 µM (inactive)	40.1 µM (inactive)	> 100 µM (inactive)	15 µM (inactive)	27.2 µM (inactive)	–
CCCCCCCCCCCCCCCC1(OC)C[N+](C)(C)CCO1 (stereo not given)	2.09 µM (inactive)	2.18 µM (inactive)	2.54 µM (inactive)	1.26 µM (inactive)	1.66 µM (inactive)	1.85 µM (inactive)	1.96 µM (inactive)	0.637 µM (active)	1.7 µM (inactive)	1.6 µM (inactive)	1.9 µM (inactive)	2.45 µM (inactive)	4.89 µM (inactive)	1.4 µM (inactive)	1.65 µM (inactive)	2.35 µM (inactive)	2.25 µM (inactive)	0.0556 µM (active)	–
